Measurements: ChEMBL document CHEMBL1128995, “Synthesis and antitumor activity of (2R,3R)-2,3-dihydroxy- and -2,3-dialkoxy-1,4-diaminobutane platinum(II) complexes” (Bioorg Med Chem Lett, 1996)
“And” between values parts separate entries of the source, which are not always exact repeats. Equal entries are not always repeated.

Assays:
Assay type in all cases: functional, organism-based
Conditions in all cases: Mus musculus
L1210 [1] = experiment: Compound was tested for antitumor activity against L1210 Leukemia in mice at 50 mg/kg dose upon intraperitoneal administration: Toxic; design: dose 50 mg/kg
L1210 [2] = experiment: Compound was tested for antitumor activity against L1210 Leukemia in mice at 25 mg/kg dose upon intraperitoneal administration: Toxic; design: dose 25 mg/kg
L1210 [3] = experiment: Compound was tested for antitumor activity against L1210 Leukemia in mice at 6.25 mg/kg dose upon intraperitoneal administration; design: dose 6.25 mg/kg
L1210 [4] = experiment: Compound was tested for antitumor activity against L1210 Leukemia in mice at 12.5 mg/kg dose upon intraperitoneal administration; design: dose 12.5 mg/kg
L1210 [5] = experiment: Compound was tested for antitumor activity against L1210 Leukemia in mice at 100 mg/kg dose upon intraperitoneal administration; design: dose 100 mg/kg
L1210 [6] = experiment: Compound was tested for antitumor activity against L1210 Leukemia in mice at 25 mg/kg dose upon intraperitoneal administration; design: dose 25 mg/kg
L1210 [7] = experiment: Compound was tested for antitumor activity against L1210 Leukemia in mice at 1.5 mg/kg dose upon intraperitoneal administration; design: dose 1.5 mg/kg
L1210 [8] = experiment: Compound was tested for antitumor activity against L1210 Leukemia in mice at 12.5 mg/kg dose upon intraperitoneal administration: Toxic; design: dose 12.5 mg/kg
L1210 [9] = experiment: Compound was tested for antitumor activity against L1210 Leukemia in mice at 3.1 mg/kg dose upon intraperitoneal administration; design: dose 3.1 mg/kg
L1210 [10] = experiment: Compound was tested for antitumor activity against L1210 Leukemia in mice at 50 mg/kg dose upon intraperitoneal administration; design: dose 50 mg/kg

Substance | Activity (L1210 [1]) | Activity (L1210 [2]) | T/C (L1210 [3]) | T/C (L1210 [4]) | T/C (L1210 [5]) [%] | T/C (L1210 [6]) [%] | T/C (L1210 [7]) [%] | Activity (L1210 [8]) | T/C (L1210 [9]) [%] | T/C (L1210 [10]) [%]
(2R,3R)-2,3-dihydroxy-1,4-diaminobutane Platinum (II) complex | Toxic | Toxic | 125% and 135% | 118% and 131% | 195 | 148 | – | – | – | –
CISPLATIN | – | Toxic | 82% | – | – | – | 142 | Toxic | 167 | –
CARBOPLATIN | – | – | 107% | 125% | 197 | 148 | – | – | – | 196
